# Patent publication US10757937B2, “Sulfonamides that activate ABA receptors” (The Regents of the University of California, priority 2014, dated 2020)
# Target: T1, PYL10 (Arabidopsis thaliana, UniProt Q8H1R0)
# T1 construct: 6X-His; made in house; host or cells: E. coli BL21[DE3]pLysS
# T1 sequence (Q8H1R0 1-183): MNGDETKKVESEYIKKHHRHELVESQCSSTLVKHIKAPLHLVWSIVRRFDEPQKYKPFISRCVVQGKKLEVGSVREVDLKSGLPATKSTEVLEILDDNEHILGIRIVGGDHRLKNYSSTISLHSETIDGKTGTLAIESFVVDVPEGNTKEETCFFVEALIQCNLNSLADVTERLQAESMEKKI
# T1 sequence (Q9CAJ0 23-511 partner): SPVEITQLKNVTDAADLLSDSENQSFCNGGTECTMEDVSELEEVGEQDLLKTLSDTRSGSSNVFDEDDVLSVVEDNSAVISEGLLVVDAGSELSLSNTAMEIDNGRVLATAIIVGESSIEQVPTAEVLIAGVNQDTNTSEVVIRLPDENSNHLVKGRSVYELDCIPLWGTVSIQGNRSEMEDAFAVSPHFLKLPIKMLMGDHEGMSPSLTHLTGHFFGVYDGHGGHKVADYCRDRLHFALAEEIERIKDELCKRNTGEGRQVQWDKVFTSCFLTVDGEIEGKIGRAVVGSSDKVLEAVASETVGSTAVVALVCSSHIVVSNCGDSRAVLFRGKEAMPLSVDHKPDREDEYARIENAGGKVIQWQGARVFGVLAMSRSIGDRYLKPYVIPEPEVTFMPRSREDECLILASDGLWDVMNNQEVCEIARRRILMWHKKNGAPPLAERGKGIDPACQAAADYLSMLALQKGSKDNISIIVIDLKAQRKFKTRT
# Test: receptor-mediated PP2C (HAB1) inhibition in vitro assay
# Type: biochemical
# Conditions: Table VII; read-out: PP2C Dose Curves PYL10 (IC50)
# Method in brief: (§1)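 Compounds, tested at 25 μM or 50 uM with ABA at 10 uM, were incubated with recombinant receptor and 50 nM GST-HAB1 (2:1 ratio) in MnCl2-containing Tris-OAc buffer, pH 7.9. Phosphatase activity was followed by 4-methylumbelliferyl-phosphate fluorescence.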
row,Compound,IC50 [µM]
1,N#Cc1ccc(CS(=O)(=O)NC(=O)C2(c3cccc(F)c3)CCCC2)cc1 [Compound 26],41.6
2,CC(C)(C(=O)NS(=O)(=O)Cc1ccc(C#N)cc1)c1ccc(Cl)cc1 [Compound 6],> 50

# Now from value to compound:
row,IC50 [µM],Compound
1,4.46,N#Cc1ccc(CS(=O)(=O)NC(=O)C2(c3ccc(F)cc3)CCCCC2)cc1 [Compound 51]
2,> 50,N#Cc1ccc(CS(=O)(=O)NC(=O)C2(c3ccccc3)CCC2)cc1 [Compound 29]
3,17.9,COc1ccccc1C1(C(=O)NS(=O)(=O)Cc2ccc(C#N)cc2)CCC1 [Compound 42]

# Target: T2, PYL11 (Arabidopsis thaliana, UniProt Q9FJ50)
# T2 construct: made in house; host or cells: E. coli BL21[DE3]pLysS
# T2 sequence (Q9FJ50 1-161): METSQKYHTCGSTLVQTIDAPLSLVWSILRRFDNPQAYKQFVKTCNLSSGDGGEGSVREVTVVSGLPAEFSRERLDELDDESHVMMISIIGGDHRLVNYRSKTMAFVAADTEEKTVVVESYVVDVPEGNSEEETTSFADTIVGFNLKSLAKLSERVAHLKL
# T2 sequence (Q9CAJ0 23-511 partner): T1 sequence (Q9CAJ0 23-511 partner)
# Test: as above
# Type: biochemical
# Conditions: Table VII; read-out: PP2C Dose Curves PYL11 (IC50)
# Method in brief: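 His-tagged receptors (MBP fusion for PYL11) at 2:1 ratio to 50 nM GST-HAB1 in 100 mM Tris-OAc pH 7.9, 100 mM NaCl, 1 mM MnCl2; 4-methylumbelliferyl-phosphate fluorogenic substrate. Compounds at 50 uM (ABA 10 uM); IC50 from dose curves for selected compounds.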
row,Compound,IC50 [µM]
1,CC(C)(C(=O)NS(=O)(=O)Cc1ccc([N+](=O)[O-])cc1)c1ccccc1 [Compound 3],1.94
2,CC(C)(C(=O)NS(=O)(=O)Cc1ccc(C#N)cc1)c1ccc(Cl)c(Cl)c1 [Compound 7],13.9
3,N#Cc1ccc(CS(=O)(=O)NC(=O)C2(c3ccc(Br)cc3)CC2)cc1 [Compound 30],4.63
4,N#Cc1ccc(CS(=O)(=O)NC(=O)C2(c3cccc(F)c3)CCCC2)cc1 [Compound 26],7.52
5,CC(C)(C(=O)NS(=O)(=O)Cc1ccc(C#N)cc1)c1ccc(Cl)cc1 [Compound 6],4.16

# Next, values leading:
row,IC50 [µM],Compound
1,5.33,N#Cc1ccc(CS(=O)(=O)NC(=O)C2(c3ccc(F)cc3)CCCCC2)cc1 [Compound 51]
2,1.77,N#Cc1ccc(CS(=O)(=O)NC(=O)C2(c3ccccc3)CCC2)cc1 [Compound 29]
3,14.7,COc1ccccc1C1(C(=O)NS(=O)(=O)Cc2ccc(C#N)cc2)CCC1 [Compound 42]

# Target: T3, PYL2 (Arabidopsis thaliana, UniProt O80992)
# T3 construct: 6X-His; made in house; host or cells: E. coli BL21[DE3]pLysS
# T3 sequence (O80992 1-190): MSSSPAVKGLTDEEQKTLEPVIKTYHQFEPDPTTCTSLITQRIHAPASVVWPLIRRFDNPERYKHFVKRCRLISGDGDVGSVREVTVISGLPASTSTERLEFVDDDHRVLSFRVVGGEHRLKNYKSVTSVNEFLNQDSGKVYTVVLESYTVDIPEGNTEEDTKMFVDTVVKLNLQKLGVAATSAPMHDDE
# T3 sequence (Q9CAJ0 23-511 partner): T1 sequence (Q9CAJ0 23-511 partner)
# Test: as above
# Type: biochemical
# Conditions: Table VII; read-out: PP2C Dose Curves PYL2 (IC50)
# Method in brief: as §1
row,Compound,IC50 [µM]
1,CC(C)(C(=O)NS(=O)(=O)Cc1ccc(C#N)cc1)c1ccc(Cl)c(Cl)c1 [Compound 7],> 50
2,N#Cc1ccc(CS(=O)(=O)NC(=O)C2(c3ccc(Br)cc3)CC2)cc1 [Compound 30],> 50
3,CC(C)(C(=O)NS(=O)(=O)Cc1ccc(C#N)cc1)c1ccc(Cl)cc1 [Compound 6],> 50

# Target: T4, PYL3 (Arabidopsis thaliana, UniProt Q9SSM7)
# T4 construct: 6X-His; made in house; host or cells: E. coli BL21[DE3]pLysS
# T4 sequence (Q9SSM7 1-209): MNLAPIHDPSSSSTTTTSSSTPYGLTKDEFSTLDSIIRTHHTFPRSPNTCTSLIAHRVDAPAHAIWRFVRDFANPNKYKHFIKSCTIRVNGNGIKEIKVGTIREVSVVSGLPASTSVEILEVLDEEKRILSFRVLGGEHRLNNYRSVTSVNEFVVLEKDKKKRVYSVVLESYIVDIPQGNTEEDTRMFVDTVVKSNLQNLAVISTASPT
# T4 sequence (Q9CAJ0 23-511 partner): T1 sequence (Q9CAJ0 23-511 partner)
# Test: as above
# Type: biochemical
# Conditions: Table VII; read-out: PP2C Dose Curves PYL3 (IC50)
# Method in brief: as §1
row,Compound,IC50 [µM]
1,N#Cc1ccc(CS(=O)(=O)NC(=O)C2(c3ccc(Br)cc3)CC2)cc1 [Compound 30],> 50

# Target: T5, PYL5 (Arabidopsis thaliana, UniProt Q9FLB1)
# T5 construct: 6X-His; made in house; host or cells: E. coli BL21[DE3]pLysS
# T5 sequence (Q9FLB1 1-203): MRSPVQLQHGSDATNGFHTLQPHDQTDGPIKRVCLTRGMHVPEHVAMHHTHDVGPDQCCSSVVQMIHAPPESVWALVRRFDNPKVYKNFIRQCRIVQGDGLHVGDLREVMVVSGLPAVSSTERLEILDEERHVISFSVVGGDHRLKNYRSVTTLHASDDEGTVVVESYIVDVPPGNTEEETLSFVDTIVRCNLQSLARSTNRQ
# T5 sequence (Q9CAJ0 23-511 partner): T1 sequence (Q9CAJ0 23-511 partner)
# Test: as above
# Type: biochemical
# Conditions: Table VII; read-out: PP2C Dose Curves PYL5 (IC50)
# Method in brief: (§2)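 Fluorogenic readout: 4-methylumbelliferyl-phosphate hydrolysis by 50 nM GST-HAB1 plus 2:1 His-receptor; Tris-OAc pH 7.9, NaCl, 1 mM MnCl2, β-ME. Compounds at 25 μM or 50 uM single dose; IC50 from dose curves for selected compounds.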
row,Compound,IC50 [µM]
1,CC(C)(C(=O)NS(=O)(=O)Cc1ccc([N+](=O)[O-])cc1)c1ccccc1 [Compound 3],29.5
2,CC(C)(C(=O)NS(=O)(=O)Cc1ccc(C#N)cc1)c1ccc(Cl)c(Cl)c1 [Compound 7],10.7
3,N#Cc1ccc(CS(=O)(=O)NC(=O)C2(c3ccc(Br)cc3)CC2)cc1 [Compound 30],0.86
4,CC(C)(C(=O)NS(=O)(=O)Cc1ccc(C#N)cc1)c1ccc(Cl)cc1 [Compound 6],> 50

# Next, values leading:
row,IC50 [µM],Compound
1,> 50,N#Cc1ccc(CS(=O)(=O)NC(=O)C2(c3ccc(F)cc3)CCCCC2)cc1 [Compound 51]
2,> 50,N#Cc1ccc(CS(=O)(=O)NC(=O)C2(c3ccccc3)CCC2)cc1 [Compound 29]
3,29.4,COc1ccccc1C1(C(=O)NS(=O)(=O)Cc2ccc(C#N)cc2)CCC1 [Compound 42]

# Same assay, conditions: compound at 25 μM; control without agonist = 100%
row,Compound,remaining activity at 25 µM [%]
1,CC(C)(C(=O)NS(=O)(=O)Cc1ccc([N+](=O)[O-])cc1)c1ccccc1 [Compound 3],47
2,CC(C)(C(=O)NS(=O)(=O)Cc1ccc(C#N)cc1)c1ccc(Cl)c(Cl)c1 [Compound 7],33
3,N#Cc1ccc(CS(=O)(=O)NC(=O)C2(c3ccc(Br)cc3)CC2)cc1 [Compound 30],12
4,N#Cc1ccc(CS(=O)(=O)NC(=O)C2(c3cccc(F)c3)CCCC2)cc1 [Compound 26],105
5,CC(C)(C(=O)NS(=O)(=O)Cc1ccc(C#N)cc1)c1ccc(Cl)cc1 [Compound 6],21

# Results, then the compound that gave them:
row,remaining activity at 25 µM [%],Compound
1,97,N#Cc1ccc(CS(=O)(=O)NC(=O)C2(c3ccc(F)cc3)CCCCC2)cc1 [Compound 51]
2,90,N#Cc1ccc(CS(=O)(=O)NC(=O)C2(c3ccccc3)CCC2)cc1 [Compound 29]
3,45,COc1ccccc1C1(C(=O)NS(=O)(=O)Cc2ccc(C#N)cc2)CCC1 [Compound 42]

# Same assay, conditions: compounds with cyclopropyl rings at alpha carbon
row,Compound,PYL5 agonist potency and selectivity
1,N#Cc1ccc(CS(=O)(=O)NC(=O)C2(c3ccc(Br)cc3)CC2)cc1 [Compound 30],potent and relatively selective PYL5 agonists

# Target: T6, PYL9 (Arabidopsis thaliana, UniProt Q84MC7)
# T6 construct: 6X-His; made in house; host or cells: E. coli BL21[DE3]pLysS
# T6 sequence (Q84MC7 1-187): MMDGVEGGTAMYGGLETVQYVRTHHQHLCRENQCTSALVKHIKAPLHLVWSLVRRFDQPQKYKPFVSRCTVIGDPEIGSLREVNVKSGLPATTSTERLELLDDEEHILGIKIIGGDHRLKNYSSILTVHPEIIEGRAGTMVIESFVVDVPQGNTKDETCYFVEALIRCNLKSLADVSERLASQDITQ
# T6 sequence (Q9CAJ0 23-511 partner): T1 sequence (Q9CAJ0 23-511 partner)
# Test: as above
# Type: biochemical
# Conditions: Table VII; read-out: PP2C Dose Curves PYL9 (IC50)
# Method in brief: as §2
row,Compound,IC50 [µM]
1,CC(C)(C(=O)NS(=O)(=O)Cc1ccc([N+](=O)[O-])cc1)c1ccccc1 [Compound 3],3
2,CC(C)(C(=O)NS(=O)(=O)Cc1ccc(C#N)cc1)c1ccc(Cl)c(Cl)c1 [Compound 7],18.5
3,N#Cc1ccc(CS(=O)(=O)NC(=O)C2(c3ccc(Br)cc3)CC2)cc1 [Compound 30],> 50
4,N#Cc1ccc(CS(=O)(=O)NC(=O)C2(c3cccc(F)c3)CCCC2)cc1 [Compound 26],7.11
5,CC(C)(C(=O)NS(=O)(=O)Cc1ccc(C#N)cc1)c1ccc(Cl)cc1 [Compound 6],8.96

# More lines, now with the values ahead:
row,IC50 [µM],Compound
1,0.04,N#Cc1ccc(CS(=O)(=O)NC(=O)C2(c3ccc(F)cc3)CCCCC2)cc1 [Compound 51]
2,1.27,N#Cc1ccc(CS(=O)(=O)NC(=O)C2(c3ccccc3)CCC2)cc1 [Compound 29]
3,17.4,COc1ccccc1C1(C(=O)NS(=O)(=O)Cc2ccc(C#N)cc2)CCC1 [Compound 42]

# Same assay, conditions: compound at 25 μM; control without agonist = 100%
row,Compound,remaining activity at 25 µM [%]
1,CC(C)(C(=O)NS(=O)(=O)Cc1ccc([N+](=O)[O-])cc1)c1ccccc1 [Compound 3],18
2,CC(C)(C(=O)NS(=O)(=O)Cc1ccc(C#N)cc1)c1ccc(Cl)c(Cl)c1 [Compound 7],38
3,N#Cc1ccc(CS(=O)(=O)NC(=O)C2(c3ccc(Br)cc3)CC2)cc1 [Compound 30],69
4,N#Cc1ccc(CS(=O)(=O)NC(=O)C2(c3cccc(F)c3)CCCC2)cc1 [Compound 26],18
5,CC(C)(C(=O)NS(=O)(=O)Cc1ccc(C#N)cc1)c1ccc(Cl)cc1 [Compound 6],32

# Other lines, results leading:
row,remaining activity at 25 µM [%],Compound
1,8,N#Cc1ccc(CS(=O)(=O)NC(=O)C2(c3ccc(F)cc3)CCCCC2)cc1 [Compound 51]
2,14,N#Cc1ccc(CS(=O)(=O)NC(=O)C2(c3ccccc3)CCC2)cc1 [Compound 29]
3,42,COc1ccccc1C1(C(=O)NS(=O)(=O)Cc2ccc(C#N)cc2)CCC1 [Compound 42]

# Same assay, conditions: five- and six-membered rings at alpha carbon
row,Compound,PYL9 agonist potency and selectivity
1,N#Cc1ccc(CS(=O)(=O)NC(=O)C2(c3ccc(F)cc3)CCCCC2)cc1 [Compound 51],potent and relatively selective PYL9 agonists
